Reference: ChEMBL document CHEMBL1156011, “Identification of orally bioavailable, non-amidine inhibitors of Urokinase Plasminogen Activator (uPA)” (Bioorg Med Chem Lett, 2009)

How the values were obtained:
[1] = target: Urokinase-type plasminogen activator (Homo sapiens, UniProt P00749); experiment: Inhibition of uPA
[2] = target: Tissue-type plasminogen activator (Homo sapiens, UniProt P00750); experiment: Inhibition of tPA
[3] = target: Plasminogen (Homo sapiens, UniProt P00747); experiment: Inhibition of plasmin
[4] = Clearance in rat; type: ADME, organism-based; details: in vivo
[5] = Volume of distribution in rat; type: ADME, organism-based; details: in vivo
[6] = Cmax in rat; type: ADME, organism-based; details: in vivo
[7] = Half life in rat; type: ADME, organism-based; details: in vivo
[8] = Oral bioavailability in rat; type: ADME, organism-based; details: in vivo

Sequence of Plasminogen (P00747 97-580 limits assumed): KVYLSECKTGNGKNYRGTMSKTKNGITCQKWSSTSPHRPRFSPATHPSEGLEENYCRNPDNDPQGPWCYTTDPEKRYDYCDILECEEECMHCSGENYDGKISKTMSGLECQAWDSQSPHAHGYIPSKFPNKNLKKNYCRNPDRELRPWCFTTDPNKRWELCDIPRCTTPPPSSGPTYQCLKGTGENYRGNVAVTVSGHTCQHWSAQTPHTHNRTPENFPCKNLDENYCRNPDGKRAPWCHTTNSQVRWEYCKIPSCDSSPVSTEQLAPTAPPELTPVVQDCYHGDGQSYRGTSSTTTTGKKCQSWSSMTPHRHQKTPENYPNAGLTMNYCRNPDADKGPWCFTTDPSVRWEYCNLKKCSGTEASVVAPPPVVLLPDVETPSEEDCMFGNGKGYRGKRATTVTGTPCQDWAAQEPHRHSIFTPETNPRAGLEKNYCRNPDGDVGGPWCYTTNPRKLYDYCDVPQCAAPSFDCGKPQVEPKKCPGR
Sequence of Plasminogen (P00747 581-810 limits assumed): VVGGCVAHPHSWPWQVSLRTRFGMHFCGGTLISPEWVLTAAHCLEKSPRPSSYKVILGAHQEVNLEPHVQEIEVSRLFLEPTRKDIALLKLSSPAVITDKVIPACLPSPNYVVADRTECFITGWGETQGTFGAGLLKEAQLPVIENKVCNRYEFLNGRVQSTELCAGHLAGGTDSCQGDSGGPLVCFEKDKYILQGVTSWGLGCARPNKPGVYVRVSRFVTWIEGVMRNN
Sequence of Tissue-type plasminogen activator (P00750 whole entry): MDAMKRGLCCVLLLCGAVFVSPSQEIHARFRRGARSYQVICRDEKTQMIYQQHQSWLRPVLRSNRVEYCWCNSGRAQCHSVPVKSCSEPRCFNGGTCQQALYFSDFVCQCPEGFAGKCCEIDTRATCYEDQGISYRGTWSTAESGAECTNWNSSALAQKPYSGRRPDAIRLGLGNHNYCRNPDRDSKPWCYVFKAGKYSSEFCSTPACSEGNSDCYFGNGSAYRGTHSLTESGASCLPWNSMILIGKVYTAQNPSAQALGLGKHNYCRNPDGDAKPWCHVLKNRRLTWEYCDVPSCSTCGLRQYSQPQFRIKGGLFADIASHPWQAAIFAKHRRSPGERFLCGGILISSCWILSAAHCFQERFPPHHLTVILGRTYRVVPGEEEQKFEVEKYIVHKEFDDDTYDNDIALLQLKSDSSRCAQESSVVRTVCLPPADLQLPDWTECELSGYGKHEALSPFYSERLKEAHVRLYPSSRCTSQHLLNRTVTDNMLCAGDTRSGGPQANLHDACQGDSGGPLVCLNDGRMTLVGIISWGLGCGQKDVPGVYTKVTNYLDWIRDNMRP

Structure (SMILES) | IC50 [1] [µM] | IC50 [2] [µM] | IC50 [3] [µM] | other results
NCc1cccc(-c2cccc(Oc3nc(Oc4ccccc4CC(=O)O)c(F)cc3F)c2)c1 | 8.1 |  |  | 
NCc1cccc(-c2cccc(Oc3nc(Oc4cc([N+](=O)[O-])ccc4C(=O)O)c(F)cc3F)c2)c1 | 1.3 |  |  | 
Cc1c(F)c(Oc2cccc(-c3cccc(C(=N)N)c3)c2)nc(Oc2cc(N(C)C)ccc2C(=O)O)c1F | 0.098 | 3.9 | 2.1 | 
Cc1ccc(C(=O)O)c(Oc2nc(Oc3cccc(-c4cccc(CN)c4)c3)c(F)cc2F)c1 | 0.24 | 22 | 5 | clearance [4]: 54 mL/min/kg; Vd [5]: 0.7 L/kg; Cmax [6]: 220 ng/mL; half-life [7]: 30 min; bioavailability [8]: 37%
CN(C)c1ccc(C(=O)O)c(Oc2nc(Oc3cccc(-c4cccc(CN)c4)c3)c(F)c(N3CCC(N(C)C)C3)c2F)c1 (stereo unspecified) |  | 5.2 | 1.9 | clearance [4]: 5 mL/min/kg; Vd [5]: 1 L/kg; half-life [7]: 276 min; bioavailability [8]: 0%
CN(C)Cc1cccc(-c2cccc(Oc3nc(Oc4cc(N(C)C)ccc4C(=O)O)c(F)cc3F)c2)c1 | > 30 |  |  | 
CN(C)c1ccc(C(=O)O)c(Oc2nc(Oc3cccc(-c4ccc(CN)cc4)c3)c(F)cc2F)c1 | > 30 |  |  | 
CNCc1cccc(-c2cccc(Oc3nc(Oc4cc(N(C)C)ccc4C(=O)O)c(F)cc3F)c2)c1 | > 30 |  |  | 
Cc1ccc(C(=O)O)c(Oc2nc(Oc3cc(O)cc(-c4cccc(CN)c4)c3)c(F)cc2F)c1 | 0.023 | 14 | 5.5 | 
Cc1ccc(Oc2nc(Oc3cccc(-c4cccc(CN)c4)c3)c(F)cc2F)c(C(=O)O)c1 | 3.5 |  |  | 
Cc1cccc(Oc2nc(Oc3cccc(-c4cccc(CN)c4)c3)c(F)cc2F)c1C(=O)O | 26 |  |  | 
CN(C)c1ccc(C(=O)O)c(Oc2nc(Oc3cccc(-c4cccc(CN)c4)c3)c(F)c(N3CCNCC3)c2F)c1 | 0.065 | 11 | 4.4 | 
NCc1cccc(-c2cccc(Oc3nc(Oc4ccccc4CCC(=O)O)c(F)cc3F)c2)c1 | > 30 |  |  | 
Cc1ccc(C(=O)O)c(Oc2nc(Oc3cc(N)cc(-c4cccc(CN)c4)c3)c(F)cc2F)c1 | 0.039 | > 30 | 5 | clearance [4]: 257 mL/min/kg; Vd [5]: 4.6 L/kg; Cmax [6]: 59 ng/mL; half-life [7]: 15.6 min; bioavailability [8]: 18%
CNc1c(F)c(Oc2cccc(-c3cccc(CN)c3)c2)nc(Oc2cc(N(C)C)ccc2C(=O)O)c1F | 0.13 | 16 | 3.6 | 
CN(C)c1ccc(C(=O)O)c(Oc2nc(Oc3cccc(-c4cccc(CN)c4)c3)c(F)c(N3CCOCC3)c2F)c1 | 0.9 | 10 | 2.1 | 
Cc1ccc(C(=O)O)c(Oc2nc(Oc3cc(CN)cc(-c4cccc(CN)c4)c3)c(F)cc2F)c1 | 2.7 |  | 2.7 | 
NCc1cccc(-c2cccc(Oc3nc(Oc4ccc(C(=O)O)cc4)c(F)cc3F)c2)c1 | > 30 |  |  | 
CN(C)c1ccc(C(=O)O)c(Oc2nc(Oc3cccc(-c4cccc(CN)c4)c3)c(F)c(N(C)C)c2F)c1 | 0.53 | > 30 | 2.9 | 
NCc1cccc(-c2cccc(Oc3nc(Oc4ccccc4C(=O)O)c(F)cc3F)c2)c1 | 0.84 | > 30 | 21 | 
CN(C)c1ccc(C(=O)O)c(Oc2nc(Oc3cccc(-c4cccc(CN)c4)c3)c(F)cc2F)c1 | 0.1 | 18 | 6.5 | clearance [4]: 26 mL/min/kg; Vd [5]: 1.15 L/kg; Cmax [6]: 33 ng/mL; half-life [7]: 30 min; bioavailability [8]: 9%
NCc1cccc(-c2cccc(Oc3nc(Oc4cccc(C(=O)O)c4)c(F)cc3F)c2)c1 | 20 |  |  | 
Cc1ccc(C(=O)O)c(Oc2nc(Oc3cc(-c4cccc(CN)c4)ccc3N)c(F)cc2F)c1 | 0.089 | 15 | 11 | 
Cc1cccc(C(=O)O)c1Oc1nc(Oc2cccc(-c3cccc(CN)c3)c2)c(F)cc1F | 0.54 |  | 8.6 | 
Cc1ccc(C(=O)O)c(Oc2nc(Oc3ccc(N)c(-c4cccc(CN)c4)c3)c(F)cc2F)c1 | > 30 |  |  | 
CC(C)c1ccc(C(=O)O)c(Oc2nc(Oc3cccc(-c4cccc(CN)c4)c3)c(F)cc2F)c1 | 0.68 |  | 2.8 | 
CN(C)CCN(C)c1c(F)c(Oc2cccc(-c3cccc(CN)c3)c2)nc(Oc2cc(N(C)C)ccc2C(=O)O)c1F | 0.1 | 28 | 6.3 | 
Cc1ccc(C(=O)O)c(Oc2nc(Oc3cc(N)cc(-c4cccc(CN)c4)c3)c(F)c(N3CCC(N(C)C)C3)c2F)c1 (stereo unspecified) | 0.015 | 8.5 | 3 | 
Cc1ccc(-n2cnnn2)c(Oc2nc(Oc3cccc(-c4cccc(CN)c4)c3)c(F)cc2F)c1 | 13 |  |  | 
COc1ccc(C(=O)O)c(Oc2nc(Oc3cccc(-c4cccc(CN)c4)c3)c(F)cc2F)c1 | 0.22 | > 30 | 9.4 | 
